Source: PubChem BioAssay AID192 (DTP/NCI, 2004)
Values joined by “and” are separate entries in the source; they are usually repeats but may differ in a detail not shown here. Identical values can stand only once. Toxic doses and inconclusive results are not listed.

Test system: BDF1 mice, B16 melanoma ip, median survival T/C
Assay: NCI In Vivo Anticancer Drug Screen. Data for tumor model B16 Melanoma (intraperitoneal) in B6D2F1 (BDF1) mice
Conditions: endpoint: median survival time, higher = longer survival
Method in brief: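 Tumor-bearing mice received test compound or vehicle. Survival or tumor size was then measured in both groups. The treated-group figure was divided by the control-group figure.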

[1] = dose: 6.25 mg/kg/injection, schedule: Q01DX009 (ip), vehicle: saline with Tween-80
[2] = dose: 50.0 mg/kg/injection, schedule: Q01DX009 (ip), vehicle: saline with Tween-80
[3] = dose: 100.0 mg/kg/injection, schedule: Q01DX009 (ip), vehicle: saline with Tween-80
[4] = dose: 200.0 mg/kg/injection, schedule: Q01DX009 (ip), vehicle: saline with Tween-80
[5] = dose: 12.5 mg/kg/injection, schedule: Q01DX009 (ip), vehicle: saline
[6] = dose: 25.0 mg/kg/injection, schedule: Q01DX009 (ip), vehicle: saline
[7] = dose: 50.0 mg/kg/injection, schedule: Q01DX009 (ip), vehicle: saline
[8] = dose: 50.0 mg/kg/injection, schedule: Q01DX009 (ip), vehicle: Klucel (hydroxypropylcellulose) (HPC)
[9] = dose: 100.0 mg/kg/injection, schedule: Q01DX009 (ip), vehicle: Klucel (hydroxypropylcellulose) (HPC)

## CCc1ccc2c(c1)N(CCCN(CCCl)CCCl)c1ccccc1S2
dose: 1.56 mg/kg/injection, schedule: Q01DX009 (ip), vehicle: saline with Tween-80
  T/C: 114 % of control
dose: 1.56 mg/kg/injection, schedule: Q04DX003 (ip), vehicle: saline with Tween-80
  T/C: 87 % of control
dose: 3.12 mg/kg/injection, schedule: Q01DX009 (ip), vehicle: saline with Tween-80
  T/C: 92 % of control and 123 % of control
dose: 3.12 mg/kg/injection, schedule: Q04DX003 (ip), vehicle: saline with Tween-80
  T/C: 110 % of control
[1]
  T/C: 111 % of control and 117 % of control
dose: 6.25 mg/kg/injection, schedule: Q04DX003 (ip), vehicle: saline with Tween-80
  T/C: 105 % of control
dose: 12.5 mg/kg/injection, schedule: Q04DX003 (ip), vehicle: saline with Tween-80
  T/C: 112 % of control
dose: 25.0 mg/kg/injection, schedule: Q04DX003 (ip), vehicle: saline with Tween-80
  T/C: 115 % of control

## CN(CC(=O)NC(Cc1c[nH]c2ccccc12)C(=O)O)C(=O)OCc1ccccc1 (configuration not stated)
[2]
  T/C: 113 % of control
[3]
  T/C: 106 % of control
[4]
  T/C: 104 % of control
dose: 400.0 mg/kg/injection, schedule: Q01DX009 (ip), vehicle: saline with Tween-80
  T/C: 100 % of control

## O=C(OC1C=CC2CCC1C2)c1ccc([N+](=O)[O-])cc1 (configuration not stated)
[2]
  T/C: 91 % of control
[3]
  T/C: 96 % of control
[4]
  T/C: 93 % of control

## CNC(=S)N(C1CCCCC1)C1CCCCC1
[2]
  T/C: 101 % of control
[3]
  T/C: 95 % of control
[4]
  T/C: 98 % of control

## CC1(C)OCC(CO)(Nc2nc(N3CC3)nc(N3CC3)n2)CO1
dose: 0.31 mg/kg/injection, schedule: Q01DX009 (ip), vehicle: saline
  T/C: 105 % of control and 112 % of control

## CN1CCC(CN2c3ccccc3Sc3ccccc32)C1 (configuration not stated)
dose: 3.12 mg/kg/injection, schedule: Q01DX009 (ip), vehicle: saline
  T/C: 105 % of control
dose: 6.25 mg/kg/injection, schedule: Q01DX009 (ip), vehicle: saline
  T/C: 89 % of control
[5]
  T/C: 94 % of control
[6]
  T/C: 107 % of control
[7]
  T/C: 92 % of control

## OCCc1ccccc1
dose: 31.3 mg/kg/injection, schedule: Q01DX009 (ip), vehicle: saline with Tween-80
  T/C: 93 % of control
[2]
  T/C: 100 % of control
dose: 62.5 mg/kg/injection, schedule: Q01DX009 (ip), vehicle: saline with Tween-80
  T/C: 95 % of control
[3]
  T/C: 97 % of control
dose: 125.0 mg/kg/injection, schedule: Q01DX009 (ip), vehicle: saline with Tween-80
  T/C: 100 % of control
[4]
  T/C: 105 % of control
dose: 250.0 mg/kg/injection, schedule: Q01DX009 (ip), vehicle: saline with Tween-80
  T/C: 93 % of control

## Cc1cccc(NC(=O)Nc2ccccc2Cl)n1
[8]
  T/C: 90 % of control
[9]
  T/C: 94 % of control
dose: 200.0 mg/kg/injection, schedule: Q01DX009 (ip), vehicle: Klucel (hydroxypropylcellulose) (HPC)
  T/C: 94 % of control

## CCCCCC/C=C/[N+]([O-])=NC(COC)C(C)O (configuration not stated)
dose: 5.0 mg/kg/injection, schedule: Q01DX009 (ip), vehicle: Klucel (hydroxypropylcellulose) (HPC)
  T/C: 107 % of control
dose: 10.0 mg/kg/injection, schedule: Q01DX009 (ip), vehicle: Klucel (hydroxypropylcellulose) (HPC)
  T/C: 105 % of control

## NC(=S)N/N=C/c1cc(-c2cccc(N)c2)ccn1
[1]
  T/C: 104 % of control and 123 % of control and 124 % of control
dose: 12.5 mg/kg/injection, schedule: Q01DX009 (ip), vehicle: saline with Tween-80
  T/C: 122 % of control
[5]
  T/C: 166 % of control
[6]
  T/C: 156 % of control
dose: 37.5 mg/kg/injection, schedule: Q04DX003 (ip), vehicle: saline
  T/C: 166 % of control
dose: 75.0 mg/kg/injection, schedule: Q01DX009 (ip), vehicle: saline with Tween-80
  T/C: 124 % of control
dose: 75.0 mg/kg/injection, schedule: Q04DX003 (ip), vehicle: saline
  T/C: 156 % of control
dose: 150.0 mg/kg/injection, schedule: Q04DX003 (ip), vehicle: saline
  T/C: 150 % of control

## COC(=O)CCCCCNC(=O)NCCCCCC(=O)OC
dose: 100.0 mg/kg/injection, schedule: Q04DX003 (ip), vehicle: Klucel (hydroxypropylcellulose) (HPC)
  T/C: 86 % of control
dose: 200.0 mg/kg/injection, schedule: Q04DX003 (ip), vehicle: Klucel (hydroxypropylcellulose) (HPC)
  T/C: 95 % of control
dose: 400.0 mg/kg/injection, schedule: Q04DX003 (ip), vehicle: Klucel (hydroxypropylcellulose) (HPC)
  T/C: 91 % of control

## CCCCOP(=O)(CCl)OCCCC
[8]
  T/C: 97 % of control
[9]
  T/C: 86 % of control

## CNC(=O)Oc1ccc2c(c1)OCO2
[7]
  T/C: 95 % of control
dose: 100.0 mg/kg/injection, schedule: Q01DX009 (ip), vehicle: saline
  T/C: 114 % of control
dose: 200.0 mg/kg/injection, schedule: Q01DX009 (ip), vehicle: saline
  T/C: 107 % of control
